# Reference: PMC3026871 (Cancer chemotherapy and pharmacology, 2010)
# Marks after values point to notes of the source that are not given here.
# Columns and labels:
# [1] = test system: alpha-1 subunit of the GABA-A receptor; conditions: ref Data on file, Millennium; cited from earlier work
# [2] = Plasma pharmacokinetics in patients; conditions: for Cmin, Mean (SD) / concentration at 6 h: 6 hours after the second dose; for AUC(0-t) / Cmax / concentration at 24 h / Tmax / concentration at 6 h: plasma, oral; for concentration at 24 h / concentration at 6 h: Cmin; for concentration at 24 h: 24 hours after the daily dose
# [3] = QID-7D 25 mg, Day 7, Dose 2, steady state, n=6
# [4] = QID-7D 35 mg, Day 7, Dose 2, steady state, n=3
# [5] = QID-7D 45 mg, Day 7, Dose 2, steady state, n=3
# [6] = QID-7D 55 mg, Day 7, Dose 2, steady state, n=4
# [7] = human, 5 mg, Mean (SD), QD-7D 5 mg, Day 7, steady state, n=4
# [8] = human, 10 mg, Mean (SD), QD-7D 10 mg, Day 7, steady state, n=4
# [9] = human, 20 mg, Mean (SD), QD-7D 20 mg, Day 7, steady state, n=3
# [10] = human, 25 mg, Mean (SD), QID-7D 25 mg, Day 7, Dose 2, steady state, n=6
# [11] = human, 30 mg, Mean (SD), QD-7D 30 mg, Day 7, steady state, n=6
# [12] = human, 35 mg, Mean (SD), QID-7D 35 mg, Day 7, Dose 2, steady state, n=3
# [13] = human, 40 mg, QD-7D 40 mg, Day 7, steady state, individual data, n=1
# [14] = human, 45 mg, Mean (SD), QID-7D 45 mg, Day 7, Dose 2, steady state, n=3
# [15] = human, 55 mg, Mean (SD), QID-7D 55 mg, Day 7, Dose 2, steady state, n=4
# [16] = human, 55 mg, Mean (SD), QID/M-7D 55 mg, Day 7, Dose 2, steady state, n=3
smiles,measurement,setting,value
O=C(O)c1ccc(Nc2ncc3c(n2)-c2ccc(Cl)cc2C(c2c(F)cccc2F)=NC3)cc1 [MLN8054],binding to the alpha-1 subunit of the GABA-A receptor,[1],high-affinity binding
same,dose proportionality of AUC0-24 hr and Cmax,[2]; QD dosing,roughly dose-proportional
same,Peak-to-Trough Ratio (Cmax/Cmin),"[2]; QD dosing, all dose levels",approximately 5
same,Geometric Mean Peak-to-Trough Ratio (Cmax/Cmin),"[2]; QD-7D 5 mg, Day 7, steady state, n=4",4.99
same,Geometric Mean Peak-to-Trough Ratio (Cmax/Cmin),"[2]; QD-7D 10 mg, Day 7, steady state, n=4",5.10
same,Geometric Mean Peak-to-Trough Ratio (Cmax/Cmin),"[2]; QD-7D 20 mg, Day 7, steady state, n=3",5.09
same,Geometric Mean Peak-to-Trough Ratio (Cmax/Cmin),"[2]; QD-7D 30 mg, Day 7, steady state, n=6",4.72
same,Peak-to-Trough Ratio (Cmax/Cmin),"[2]; QD-7D 40 mg, Day 7, steady state, individual data, n=1",6.59 ^†
same,Geometric Mean Peak-to-Trough Ratio (Cmax/Cmin),[2]; [3],1.58
same,"Cmin, Mean (SD)",[2]; [3],720 (359) nM
same,Geometric Mean Peak-to-Trough Ratio (Cmax/Cmin),[2]; [4],1.32
same,"Cmin, Mean (SD)",[2]; [4],1464 (301) nM
same,Geometric Mean Peak-to-Trough Ratio (Cmax/Cmin),[2]; [5],1.45
same,"Cmin, Mean (SD)",[2]; [5],1139 (803) nM
same,Geometric Mean Peak-to-Trough Ratio (Cmax/Cmin),[2]; [6],1.44
same,"Cmin, Mean (SD)",[2]; [6],1802 (846) nM
same,Geometric Mean Peak-to-Trough Ratio (Cmax/Cmin),"[2]; QID/M-7D 55 mg, Day 7, Dose 2, steady state, n=3",1.81
same,Geometric Mean Peak-to-Trough Ratio (Cmax/Cmin),"[2]; QID/M-7D 60 mg, Day 7, Dose 2, steady state, n=6",1.80
same,Geometric Mean Peak-to-Trough Ratio (Cmax/Cmin),"[2]; QID/M-7D 70 mg, Day 7, Dose 2, steady state, n=3",1.65
same,Geometric Mean Peak-to-Trough Ratio (Cmax/Cmin),"[2]; QID/M-7D 80 mg, Day 7, Dose 2, steady state, n=3",1.35
same,Geometric Mean Peak-to-Trough Ratio (Cmax/Cmin),"[2]; QID/M-14D 60 mg, Day 14, Dose 2, steady state, n=3",1.29
same,Peak-to-Trough Ratio (Cmax/Cmin),"[2]; QID/M-21D 60 mg, Day 21, Dose 2, steady state, individual data, n=1",1.59 ^†
same,MLN8054 concentrations between the second and third doses,"[2]; QID/M-21D 60 mg, days 14 and 21, 1 patient",< 2000 nM
same,concentration at 7 day,"[2]; human, in vivo, 60 mg",~2000 nM
same,concentration at 14 day,"[2]; human, in vivo, 60 mg",> 2000 nM
same,AUC(0-t),"[2]; human, 5 mg, AUC0–24, Mean (SD), QD-7D 5 mg, Day 7, steady state, n=4",6.16 µM·h
same,Cmax,[2]; [7],521 nM
same,concentration at 24 h,[2]; [7],162 nM
same,Tmax,[2]; [7],1.7 h
same,AUC(0-t),"[2]; human, 10 mg, AUC0–24, Mean (SD), QD-7D 10 mg, Day 7, steady state, n=4",7.53 µM·h
same,Cmax,[2]; [8],724 nM
same,concentration at 24 h,[2]; [8],154 nM
same,Tmax,[2]; [8],3.8 h
same,AUC(0-t),"[2]; human, 20 mg, AUC0–24, Mean (SD), QD-7D 20 mg, Day 7, steady state, n=3",13.5 µM·h
same,Cmax,[2]; [9],1180 nM
same,concentration at 24 h,[2]; [9],240 nM
same,Tmax,[2]; [9],3.3 h
same,AUC(0-t),"[2]; human, 25 mg, AUC0–24, Mean (SD), QID-7D 25 mg, Day 7, Dose 2, steady state, n=6",4.85 µM·h
same,Cmax,[2]; [10],1050 nM
same,concentration at 6 h,[2]; [10],720 nM
same,Tmax,[2]; [10],2.5 h
same,AUC(0-t),"[2]; human, 30 mg, AUC0–24, Mean (SD), QD-7D 30 mg, Day 7, steady state, n=6",28.2 µM·h
same,Cmax,[2]; [11],2360 nM
same,concentration at 24 h,[2]; [11],912 nM
same,Tmax,[2]; [11],3 h
same,AUC(0-t),"[2]; human, 35 mg, AUC0–24, Mean (SD), QID-7D 35 mg, Day 7, Dose 2, steady state, n=3",9.71 µM·h
same,Cmax,[2]; [12],1970 nM
same,concentration at 6 h,[2]; [12],1460 nM
same,Tmax,[2]; [12],1.5 h
same,AUC(0-t),"[2]; human, 40 mg, AUC0–24, QD-7D 40 mg, Day 7, steady state, individual data, n=1",24.2 µM·h
same,Cmax,[2]; [13],3040 nM
same,concentration at 24 h,[2]; [13],461 nM
same,Tmax,[2]; [13],1 h
same,AUC(0-t),"[2]; human, 45 mg, AUC0–24, Mean (SD), QID-7D 45 mg, Day 7, Dose 2, steady state, n=3",7.55 µM·h
same,Cmax,[2]; [14],1530 nM
same,concentration at 6 h,[2]; [14],1140 nM
same,Tmax,[2]; [14],0.8 h
same,AUC(0-t),"[2]; human, 55 mg, AUC0–24, Mean (SD), QID-7D 55 mg, Day 7, Dose 2, steady state, n=4",12.5 µM·h
same,AUC(0-t),"[2]; human, 55 mg, AUC0–24, Mean (SD), QID/M-7D 55 mg, Day 7, Dose 2, steady state, n=3",10.7 µM·h
same,Cmax,[2]; [15],2480 nM
same,Cmax,[2]; [16],2310 nM
same,concentration at 6 h,[2]; [15],1800 nM
same,concentration at 6 h,[2]; [16],1310 nM
same,Tmax,[2]; [15],1.2 h
same,Tmax,[2]; [16],1 h
same,AUC(0-t),"[2]; human, 60 mg, AUC0–24, Mean (SD), QID/M-7D 60 mg, Day 7, Dose 2, steady state, n=6",8.38 µM·h
same,AUC(0-t),"[2]; human, 60 mg, AUC0–24, Mean (SD), QID/M-14D 60 mg, Day 14, Dose 2, steady state, n=3",13.2 µM·h
